Data on 17 compounds can be found in patent US5120735A, “Antifungal composition” (Kaken Pharmaceutical Co., Ltd., priority 1987, dated 1992).

The test system of data set [1] is Candida albicans MTU 12021. The experiment in a line: Agar dilution MIC, single and combined use. Type of data set: cell-based. The note with it: for MIC: Candida albicans, read-out: Minimum Inhibitory Concentration (MIC); for Minimum Inhibitory Concentration (MIC) of miconazole in combination with the arylmethylamine compound: MIC is that of miconazole, compound at a concentration of 100 mg/ml (so in the source); for Minimum Inhibitory Concentration (MIC) of the agent combined with Compound 1: combined with Compound 1 at 100 μg/ml; for synergistic effects of combined use with Compound 1: agent combined with Compound 1, Table 1. On the procedure:
(1) The effects of the combined use of Compound 1 with various imidazole antifungal agents against Candida albicans MTU 12021 strain were examined as follows. […] Then, distilled water containing 0.1% by weight of Tween 80 was added thereto to obtain drug solutions having a concentration of from 1 to 1,000 μg/ml.
(§1) 1 ml of each drug solution diluted twice was introduced into a sterilized Petri dish, and 8 ml of Sabouraud agar medium was added to prepare a agar plate. Thus, a series of agar plates for the combinations having various concentrations were prepared.
(§2) Candida albicans MTU 12021 strain cultured on a Sabouraud agar medium for 24 hours, was suspended in a saline, and a cells suspension having a concentration of 2×10^6 spores/ml was prepared by counting the number of spores by a hemacytometer. Then, 50 μl of the cells suspension was inoculated to the above agar plates by means of a microplanter (manufactured by Sakuma Seisakusho). The inoculated agar plates were cultured at 37° C. for 48 hours, whereupon the presence or absence of the growth of the strain was examined.
(§3) Culture medium: Sabouraud agar medium
(§4) Culturing condition: 37° C. for 48 hours
(§5) Strain used: Candida albicans MTU 12021
On the technique in general: In agar dilution the substance is mixed into plates at graded concentrations.

The test system of data set [2] is Candida albicans MTU 12021. The experiment in a line: Checker board method, combined use of Compound 1 with miconazole or ketoconazole. As to Growth: key: +: Growth observed; -: No growth observed. It is filed as cell-based. Conditions: for synergistic effects of combined use with Compound 1 (checker board): agent combined with Compound 1, Tables 2 and 3; for Growth: Compound 1 0. On the procedure: as §1, §2, §3, §4, §5

Data set [3] concerns Candida albicans MTU 12021. Description: Disk method (growth inhibition ring). The note with it: for effects of combined use with miconazole or ketoconazole: same disk method as Example 1(3). It is filed as cell-based. On the procedure:
(3) The effects of the combined use of Compound 1 with miconazole or ketoconazole were examined by a disk method.
Candida albicans MTU 12021 stain was mixed with a Sabouraud agar medium to have a concentration of 5×10^4 spores/ml, and 10 ml thereof was poured into a sterilized Petri dish to obtain an inoculated agar plate.
50 mg of each of Compound 1, miconazole and ketoconazole was impregnated to a disk (Toyo Filter paper of 8 mm in diameter), and the disk was placed on the inoculated agar plate, followed by culturing at 37° C. for 96 hours, whereupon the synergistic effects were evaluated based on the growth inhibition ring thereby appeared.

In data set [4] the test system is ICR male mice. The experiment in a line: Acute toxicity, oral, mice. The note with it: up to 5,000 mg/kg, ICR male mice of 5 weeks old. It is filed as in vivo. The source says:
To examine the acute toxicity of the arylmethylamine antifungal agents used in the composition of the present invention, Compounds 1 and 2 were selected, and they were, respectively, suspended in 0.5% methyl cellulose and orally administered to ICR male mice of 5 weeks old (body weight: 26-28 g) at a dose corresponding to the body weight.

Setting [5] is: MTU12021, single use, Sabouraud agar, 37° C., 48 hours.
Where [6] appears, read: Sabouraud agar, 37° C., 48 hours.

Read-outs that look alike come from different tables or passages of the source.

Regarding `CN(Cc1ccc(C(C)(C)C)cc1)Cc1ccc(F)c2ccccc12` [Compound 3, N-4-tert-butylbenzyl-N-methyl-4-fluoro-1-naphthalenemethylamine], the MIC in data set [1] (setting [5]) was more than 100 µg/mL. In addition, the “Minimum Inhibitory Concentration (MIC) of miconazole in combination with the arylmethylamine compound” value in data set [1] is 6.25 µg/mL.
The like results for `CN(Cc1ccc(C(C)(C)C)s1)Cc1cccc2ccccc12` [Compound 5, N-methyl-N-(1-naphthalenemethyl)-5-tert-butyl-2-thiophenemethylamine] were, in that order, more than 100 µg/mL and 3.13 µg/mL.
On to `CC(=O)N1CCN(c2ccc(OCC3COC(Cn4ccnc4)(c4ccc(Cl)cc4Cl)O3)cc2)CC1` (centres unmarked) [ketoconazole, reference compound], for which, in data set [2], the “synergistic effects of combined use with Compound 1 (checker board)” value is given as “Remarkable syntergistic effects”. The Growth entry in data set [2] (ketoconazole 0.1 μg/ml), in data set [2] (ketoconazole 0.2 μg/ml), in data set [2] (ketoconazole 0.39 μg/ml), in data set [2] (ketoconazole 0.78 μg/ml), in data set [2] (ketoconazole 1.56 μg/ml) and in data set [2] (ketoconazole 3.13 μg/ml) was “+” each time. Further, the Growth entry in data set [2] (ketoconazole 12.5 μg/ml) was “+”; in data set [2] (ketoconazole 25 μg/ml), “-”; in data set [2] (ketoconazole 50 μg/ml) it was “-”; in data set [2] (ketoconazole 100 μg/ml) it was “-”.
Consider `CN(Cc1ccc(C(C)(C)C)cc1)Cc1csc2ccccc12` [Compound 4, N-4-tert-butylbenzyl-N-methyl-3-benzo[b]thiophenemethylamine], for which the MIC in data set [1] (setting [5]) is more than 100 µg/mL. For the same compound, in data set [1], the “Minimum Inhibitory Concentration (MIC) of miconazole in combination with the arylmethylamine compound” value worked out at 1.56 µg/mL.
In the case of `Clc1cc(Cl)c(OCC#CI)cc1Cl` [Haloprozin], the MIC in data set [1] (setting [5]) is more than 100 µg/mL. Moreover, the “Minimum Inhibitory Concentration (MIC) of the agent combined with Compound 1” value in data set [1] (setting [6]) was more than 100 µg/mL.
Consider `O=C(CCCCCCCCC#CI)Oc1ccccc1` [KP-4249], for which the MIC in data set [1] (setting [5]) amounted to 100 µg/mL. In data set [1] (setting [6]), the “Minimum Inhibitory Concentration (MIC) of the agent combined with Compound 1” value is 100 µg/mL.
For `Cc1cc(O)c2c(c1)O[C@@]1(C)CC[C@H]3C(C)(C)CCC[C@]34CO[C@@H]2[C@H]41` [Siccanine], the MIC in data set [1] (setting [5]) is 25 µg/mL. Moreover, in data set [1] (setting [6]), the “Minimum Inhibitory Concentration (MIC) of the agent combined with Compound 1” value worked out at 25 µg/mL.
As to `CN(C/C=C/C#CC(C)(C)C)Cc1cccc2ccccc12` [Compound 7, (E)-N-[6,6-dimethyl-2-hepten-4-ynyl)-N-methyl-1-naphthalenemethylamine], the MIC in data set [1] (setting [5]) was more than 100 µg/mL. Moreover, in data set [1], the “Minimum Inhibitory Concentration (MIC) of miconazole in combination with the arylmethylamine compound” value was found to be 0.78 µg/mL. Moreover, the “effects of combined use with miconazole or ketoconazole” value in data set [3] is “remarkable synergistic effects”.
On to `Clc1ccc(C(Cn2ccnc2)OCc2c(Cl)cccc2Cl)c(Cl)c1` (centres unmarked) [isoconazole], for which the MIC in data set [1] (setting [5]) was found to be 25 µg/mL. Moreover, the “synergistic effects of combined use with Compound 1” value in data set [1] is “remarkable synergistic effects”. For the same compound, in data set [1] (setting [6]), the “Minimum Inhibitory Concentration (MIC) of the agent combined with Compound 1” value turned out to be 1.56 µg/mL.
`Clc1ccc(COC(Cn2ccnc2)c2ccc(Cl)cc2Cl)cc1` (centres unmarked) [econazole]: the MIC in data set [1] (setting [5]) turned out to be 25 µg/mL. Besides, the “synergistic effects of combined use with Compound 1” value in data set [1] is “remarkable synergistic effects”. Moreover, in data set [1] (setting [6]), the “Minimum Inhibitory Concentration (MIC) of the agent combined with Compound 1” value was 1.56 µg/mL.
Take `Clc1ccc(CO/N=C(\Cn2ccnc2)c2ccc(Cl)cc2Cl)c(Cl)c1` [oxiconazole]: the “synergistic effects of combined use with Compound 1” value in data set [1] is “remarkable synergistic effects”.
Take `CN(C/C=C/c1ccccc1)Cc1cccc2ccccc12` [Compound 6, (E)-N-cinnamyl-N-methyl-1-naphthalenemethylamine]: in data set [1] (setting [5]), the MIC was more than 100 µg/mL. For the same compound, the “Minimum Inhibitory Concentration (MIC) of miconazole in combination with the arylmethylamine compound” value in data set [1] was determined as 1.56 µg/mL. Also, the “effects of combined use with miconazole or ketoconazole” value in data set [3] is “remarkable synergistic effects”.
As for `C[C@@H]1[C@H](O)[C@@H](C)/C=C/C=C/C=C/C=C/C=C/C=C/C=C/[C@H](O[C@@H]2O[C@H](C)[C@@H](O)[C@H](N)[C@@H]2O)C[C@@H]2O[C@](O)(C[C@@H](O)C[C@@H](O)[C@H](O)CC[C@@H](O)C[C@@H](O)CC(=O)O[C@H]1C)C[C@H](O)[C@H]2C(=O)O` [Amphotericin B], the MIC in data set [1] (setting [5]) is 3.13 µg/mL. For the same compound, in data set [1] (setting [6]), the “Minimum Inhibitory Concentration (MIC) of the agent combined with Compound 1” value came to 3.13 µg/mL.
With `O=[N+]([O-])c1c(Cl)cccc1-c1c[nH]cc1Cl` [Pyrrolnitrin], the MIC in data set [1] (setting [5]) was 50 µg/mL. Besides, the “Minimum Inhibitory Concentration (MIC) of the agent combined with Compound 1” value in data set [1] (setting [6]) turned out to be 50 µg/mL.
Turning to `CCC(C)(C)c1ccc(CN(C)Cc2cccc3ccccc23)cc1` [Compound 2, N-methyl-N-4-tert-pentylbenzyl-1-naphthalenemethylamine], the MIC in data set [1] (setting [5]) was more than 100 µg/mL. In addition, the “Minimum Inhibitory Concentration (MIC) of miconazole in combination with the arylmethylamine compound” value in data set [1] came to 3.13 µg/mL. Also, the death result in data set [4] is listed as “no instance of death”.
With `Clc1ccccc1C(c1ccccc1)(c1ccccc1)n1ccnc1` [clotrimazole], the MIC in data set [1] (MTU12021, 48 h) stood at 12.5 µg/mL. The “synergistic effects of combined use with Compound 1” value in data set [1] is reported as “remarkable synergistic effects”. The “Minimum Inhibitory Concentration (MIC) of the agent combined with Compound 1” value in data set [1] (setting [6]) was 3.13 µg/mL.
`Clc1ccc(COC(Cn2ccnc2)c2ccc(Cl)cc2Cl)c(Cl)c1` (centres unmarked) [miconazole, reference compound]: in data set [1] (MTU12021, 48 h), the MIC amounted to 25 µg/mL. In data set [1], the “synergistic effects of combined use with Compound 1” value is on record as “remarkable synergistic effects”. In data set [1] (setting [6]), the “Minimum Inhibitory Concentration (MIC) of the agent combined with Compound 1” value turned out to be 1.56 µg/mL. Besides, the “synergistic effects of combined use with Compound 1 (checker board)” value in data set [2] is given as “Remarkable syntergistic effects”. The Growth result in data set [2] (miconazole 0.39 μg/ml), in data set [2] (miconazole 0.78 μg/ml), in data set [2] (miconazole 1.56 μg/ml), in data set [2] (miconazole 3.13 μg/ml), in data set [2] (miconazole 12.5 μg/ml) and in data set [2] (miconazole 25 μg/ml) was “+” in each case. Besides, the Growth entry in data set [2] (miconazole 50 μg/ml) and in data set [2] (miconazole 100 μg/ml) was “-” throughout. The “growth inhibition ring, disk alone” value in data set [3] (50 mg per disk (so in the source), 37° C., 96 hours, FIG. 2) was “a complete inhibitory ring with a small diameter and an incomplete inhibitory ring with a large diameter”.
